Test results as given in US6875884B1, “Urea derivatives as inhibitors for CCR-3 receptor” (Kirin Beer Kabushiki Kaisha, priority 1999, dated 2005).

Biological target: T1, CCR-3 (Homo sapiens, UniProt P51677)
T1 sequence (P51677 1-355): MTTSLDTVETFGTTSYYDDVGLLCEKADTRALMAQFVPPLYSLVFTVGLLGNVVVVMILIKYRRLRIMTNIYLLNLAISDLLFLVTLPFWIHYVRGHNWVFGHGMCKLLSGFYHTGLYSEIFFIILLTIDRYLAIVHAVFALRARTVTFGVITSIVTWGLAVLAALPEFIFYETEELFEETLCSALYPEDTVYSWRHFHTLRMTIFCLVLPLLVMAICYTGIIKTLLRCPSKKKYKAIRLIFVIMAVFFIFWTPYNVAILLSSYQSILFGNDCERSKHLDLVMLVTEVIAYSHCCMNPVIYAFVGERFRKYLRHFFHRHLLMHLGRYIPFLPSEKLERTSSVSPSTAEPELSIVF
Test: Inhibition of eotaxin-induced chemotaxis of CCR-3 transfectant cells (CCR3/U937)
Assay type: cell-based
Set-up: expressed in transfected cells; host or cells: U937
Conditions: eotaxin 1×10^−9 M; for Chemotaxis Assay 10 μM (inhibition %): compound 10 μM; for inhibition at 10 µM: U-937, compound 10 μM
Description: The inhibitory activity of the compounds against eotaxin-induced chemotaxis was determined by measuring the inhibition of migration of CCR-3 transfectant cells (CCR3/U937), using a minor modification of the method described by Ohashi, H. et al., Int Arch Allergy Immunol. (1999) 118, 44-50. CCR-3 transfectant cells were grown in PRMI1640 medium containing 10% fetal calf serum (FCS) and Geneticin 418 (0.8 mg/ml). For the assay, CCR-3 transfectant cells were isolated and resuspended at 1×10^7 cells/ml in assay medium (RPMI 1640 medium containing 0.1% bovine serum albumin (BSA)). The chemotaxis assay was performed in a 24-well culture plate. Human eotaxin suspended in assay medium was added to the wells at 1×10^−9 M along with test compounds at various concentrations. For a positive control, eotaxin was added to the wells without a test compound, and for a negative control, neither eotaxin nor a test compound was added to the walls. Chemotaxicell (Kurabo Co., Ltd.) having 5 micrometers pore size were inserted into each well and 100 micro liters of CCR-3 transfectant cells suspension were added to the top chamber. The plates were incubated at 37° C. for 1 hour. After incubation, migrated cells in lower wells were diluted and counted by particle size distribution analyzer (CDP-500, Sysmex Co., Ltd.)

Compound	Chemotaxis Assay 10 μM (inhibition %) (Table 3a) [%]	further results
CCN(CCNC(=O)Nc1ccc([N+](=O)[O-])cc1)CCc1ccc(Cl)cc1 [Compound 4]	59	–
CCN(CCCNC(=O)Nc1ccc(Cl)cc1)CCc1ccc(Cl)cc1 [Compound 6]	100	–
CCN(CCCNC(=O)Nc1ccccc1OC)CCc1ccc(Cl)cc1 [Compound 9]	100	–
COc1ccc(CN(CCCNC(=O)Nc2ccccc2)CCc2ccc(Cl)cc2)cc1 [Compound 18]	58	–
O=C(NCCCN(CCc1ccc(Cl)cc1)Cc1cccnc1)Nc1ccccc1 [Compound 23]	82	–
O=C(NCCCN(CCc1ccccc1)CCc1ccc(Cl)cc1)Nc1ccccc1 [Compound 25]	88	–
CN(CCCNC(=O)Nc1ccccc1)CCc1ccc(Cl)cc1 [Compound 27]	97	–
COC(=O)CCCN(CCCNC(=O)Nc1ccc(Br)cc1)Cc1cccs1 [Compound 39]	78	–
COC(=O)CCCN(CCCNC(=O)Nc1ccc(Br)cc1)CCc1ccc(OC)c(OC)c1 [Compound 43]	50	–
COC(=O)CCCN(CCNC(=O)Nc1ccc(Br)cc1)C1CCCc2ccccc21 (centres unmarked) [Compound 50]	54	–
O=C(O)CCCN(CCNC(=O)Nc1ccc(Br)cc1)C1CCCc2ccccc21 (centres unmarked) [Compound 81]	58	–
CCN(CCc1ccc(Cl)cc1)CC(O)CNC(=O)Nc1ccccc1 (centres unmarked) [Compound 163, N-phenylcarbamoyl-N′-[2-(4-chlorophenyl)ethyl]-N′-ethyl 2-hydroxy-1,3-diaminopropane]	–	inhibition at 10 µM (Table 3a): 96%
O=C(O)CCCN(CCCNC(=S)Nc1ccc(Cl)cc1)C1CCCc2ccccc21 (centres unmarked) [Compound 164, 4-[[3-(4-chlorophenylthioureido)propyl](1,2,3,4-tetrahydro-1-naphthyl)amino]butanoic acid]	–	inhibition at 10 µM (Table 3a): 100%
CC(C)(C)OC(=O)[C@H](CCN(CCCC(=O)O)C1CCCc2ccccc21)NC(=O)Nc1ccc(Br)cc1 (stereo partly drawn) [Compound 165, 4[[(3S)-3-(4-bromophenylureido)-3-(tert-butoxycarbonyl)propyl](1,2,3,4-tetrahydro-1-naphthyl)amino]butanoic acid]	–	inhibition at 10 µM (Table 3a): 100%
CC(C)(C)OC(=O)[C@H](CCN(CCCC(=O)O)C1CCCc2ccccc21)NC(=O)Nc1ccc(Br)cc1 (stereo partly drawn) [Compound 166, 4[[(3S)-3-(4-bromophenylureido)-3-(tert-butoxycarbonyl)propyl](1,2,3,4-tetrahydro-1-naphthyl)amino]butanoic acid]	100	–
O=C(O)CCCN(CC(O)CNC(=O)Nc1ccc(Br)cc1)C1CCCc2ccccc21 (centres unmarked) [Compound 167, 4-[[3-(4-bromophenylureido)-2-hydroxypropyl](1,2,3,4-tetrahydro-1-naphthyl)amino]butanoic acid]	–	inhibition at 10 µM (Table 3a): 100%
O=C(O)CCCN(CCCNC(=O)Nc1ccc(Br)cc1)C1CCc2ccccc21 (centres unmarked) [Compound 173, 4-[[3-(4-Bromophenylureido)propyl](1-indanyl)amino]butanoic acid]	–	inhibition at 10 µM (Table 3a): 100%
CCCCOC(=O)c1ccc(NC(=O)NCCCN(CCCC(=O)O)C2CCCc3ccccc32)cc1 (centres unmarked) [Compound 237]	100	–
O=C(O)CCCN(CCCNC(=S)Nc1ccc(Br)cc1)C1CCCc2ccccc21 (centres unmarked) [Compound 246]	100	–
O=C(O)CCCN(CCCNC(=S)Nc1cccc(Br)c1)C1CCCc2ccccc21 (centres unmarked) [Compound 247]	99	–
O=C(O)CCCN(CCCNC(=S)Nc1cccc(Cl)c1)C1CCCc2ccccc21 (centres unmarked) [Compound 248]	100	–

Compound	Chemotaxis Assay 10 μM (inhibition %) (Table 3a) [%]	further results
O=C(O)CCCN(CCCNC(=S)Nc1ccc(I)cc1)C1CCCc2ccccc21 (centres unmarked) [Compound 249]	100	–
Cc1ccc(NC(=S)NCCCN(CCCC(=O)O)C2CCCc3ccccc32)cc1 (centres unmarked) [Compound 250]	99	–
O=C(O)CCCN(CCCNC(=S)Nc1ccc(Cl)c(Cl)c1)C1CCCc2ccccc21 (centres unmarked) [Compound 251]	100	–
COC(=O)CCCN(CCCNC(=S)Nc1ccc(Br)cc1)C1CCCc2ccccc21 (centres unmarked) [Compound 252]	100	–
COC(=O)CCCN(CCCNC(=S)Nc1cccc(Br)c1)C1CCCc2ccccc21 (centres unmarked) [Compound 253]	74	–
COC(=O)CCCN(CCCNC(=S)Nc1ccc(I)cc1)C1CCCc2ccccc21 (centres unmarked) [Compound 255]	100	–
COC(=O)CCCN(CCCNC(=S)Nc1ccc(Cl)c(Cl)c1)C1CCCc2ccccc21 (centres unmarked) [Compound 256]	100	–
O=C(O)CCCN(CCCNC(=S)Nc1ccc(F)cc1)C1CCCc2ccccc21 (centres unmarked) [Compound 257]	100	–
O=C(O)CCCN(CCCNC(=O)Nc1cc(Cl)nc(Cl)c1)C1CCCc2ccccc21 (centres unmarked) [Compound 279]	96	–
COC(=O)CCCN(CC[C@H](NC(=O)Nc1ccc(Br)cc1)C(=O)OC(C)(C)C)C1CCCc2ccccc21 (some centres unmarked) [Compound 281]	100	–
COC(=O)CCCN(CC[C@H](NC(=O)Nc1ccc(Br)cc1)C(=O)NC(C)C)C1CCCc2ccccc21 (stereo partly drawn) [Compound 282, methyl 4-[[(3S)-3-(4-bromophenylureido)-3-(isopropylcarbamoyl)propyl](1,2,3,4-tetrahydro-1-naphthyl)amino]butylate]	100	–
COC(=O)CCCN(CC[C@H](NC(=O)Nc1ccc(Br)cc1)C(=O)NCc1ccccc1)C1CCCc2ccccc21 (stereo partly drawn) [Compound 283, Methyl 4-[[(3S)-3-(4-bromophenylureido)-3-(benzylcarbamoyl)propyl](1,2,3,4-tetrahydro-1-naphthyl)amino]butylate]	100	–
CC(C)NC(=O)[C@H](CCN(CCCC(=O)O)C1CCCc2ccccc21)NC(=O)Nc1ccc(Br)cc1 (stereo partly drawn) [Compound 284, 4-[[(3S)-3-(4-Bromophenylureido)-3-(isopropylcarbamoyl)propyl](1,2,3,4-tetrahydro-1-naphthy1)amino]butanoic acid]	95	–
CC(C)NC(=O)[C@H](CCN(CCCC(=O)O)C1CCCc2ccccc21)NC(=O)Nc1ccc(Br)cc1 (stereo partly drawn) [Compound 286, 4-[[(3S)-3-(4-Bromophenylureido)-3-(isopropylcarbamoyl)propyl](1,2,3,4-tetrahydro-1-naphthyl)amino]butanoic acid]	–	inhibition at 10 µM (Table 3a): 100%
O=C(O)CCCN(CC[C@H](NC(=O)Nc1ccc(Br)cc1)C(=O)NCc1ccccc1)C1CCCc2ccccc21 (stereo partly drawn) [Compound 287, 4-[[(3S)-3-(4-Bromophenylureido)-3-(benzylcarbamoyl)propyl](1,2,3,4-tetrahydro-1-naphthyl)amino]butanoic acid]	100	–
O=C(O)CCCN(CCCNC(=S)Nc1ccc(Br)cc1)[C@@H]1CCc2ccccc21 [Compound 288, 4-[[3(4-Bromophenylthioureido)propyl][(1R)-1-indanyl]amino]butanoic acid]	–	inhibition at 10 µM (Table 3a): 100%
CC(c1ccccc1)N(CCCNC(=S)Nc1ccc(Br)cc1)CCCC(=O)O (centres unmarked) [Compound 289]	100	–
O=C(O)CCCN(CCCNC(=S)Nc1ccc(Br)cc1)[C@@H]1CCCc2ccccc21 [Compound 290, 4-[[3(4-Bromophenylthioureido)propyl][(1R)-1,2,3,4-tetrahydro-1-naphthyl]amino]butanoic acid]	–	inhibition at 10 µM (Table 3a): 100%
CC[N+](CC)(CCCNC(=S)Nc1ccc(Br)cc1)CCc1ccc(Cl)cc1.[I-] [Compound 335]	–	Chemotaxis Assay 10 μM (inhibition %) (Table 3c): 100%
CC[N+](CC)(CCCNC(=S)Nc1ccccc1)CCc1ccc(Cl)cc1.[I-] [Compound 336]	–	Chemotaxis Assay 10 μM (inhibition %) (Table 3c): 100%
